Data published in patent US9937259B2, “Abiraterone derivatives and non-covalent complexes with albumin” (Zhuhai Beihai Biotech Co., Ltd., priority 2014, dated 2018).

Assays:
CYP3A4 liver enzyme = CYP3A4 liver enzyme (Homo sapiens, UniProt P08684); settings: cited from earlier work
[1] = depending on fat content of the meal; cited from earlier work
[2] = product insert; cited from earlier work
[3] = oral drug, poor absorption; cited from earlier work
[4] = Persistence in plasma (incubation at 37° C., LC-MS/MS); assay type: in vitro ADME, human; settings: for Peak Area Ratio (Analyte/IS): Human Plasma
Experimental: Test compounds and control (procaine) were incubated at a concentration of 10 μM with human plasma. […]
After quenching by acetonitrile, the plates were capped, vortexed, and centrifuged at 3000 rpm for 10 minutes. The supernatant was injected into LC-MS/MS.

[5] = Persistence in plasma study, PBS buffer incubation; assay type: physicochemical; settings: for Peak Area Ratio (Analyte/IS): PBS Buffer (pH 7.4), 37° C.; for % Remaining after 24-hr Incubation at 37° C.: PBS buffer

Chain of CYP3A4 liver enzyme (P08684 whole entry): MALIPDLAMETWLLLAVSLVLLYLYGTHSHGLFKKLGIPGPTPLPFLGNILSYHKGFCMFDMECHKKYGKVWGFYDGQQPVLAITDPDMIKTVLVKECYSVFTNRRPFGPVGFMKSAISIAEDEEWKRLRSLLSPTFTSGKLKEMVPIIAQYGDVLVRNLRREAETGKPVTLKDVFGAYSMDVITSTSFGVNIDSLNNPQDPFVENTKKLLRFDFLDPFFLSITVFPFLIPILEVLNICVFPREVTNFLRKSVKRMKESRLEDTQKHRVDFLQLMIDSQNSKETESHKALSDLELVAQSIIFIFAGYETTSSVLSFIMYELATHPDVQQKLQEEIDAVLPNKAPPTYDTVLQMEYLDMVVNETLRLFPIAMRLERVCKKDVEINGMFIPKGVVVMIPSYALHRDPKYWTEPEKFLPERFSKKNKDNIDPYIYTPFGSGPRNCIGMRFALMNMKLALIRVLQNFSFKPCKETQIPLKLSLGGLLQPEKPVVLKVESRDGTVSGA

Row | Structure (SMILES) | Substrate of CYP3A4 (CYP3A4 liver enzyme) | Food-effect [1] | Solubility in water [2] | Administered drug excreted [3] [%] | Peak Area Ratio (Analyte/IS) ([4]; 0 hr, Replicate 1) | Peak Area Ratio (Analyte/IS) ([4]; 0 hr, Replicate 2) | Peak Area Ratio (Analyte/IS) ([4]; 24 hr, 37° C., Replicate 1) | Peak Area Ratio (Analyte/IS) ([4]; 24 hr, 37° C., Replicate 2) | % Remaining after 24-hr Incubation at 37° C. ([4]; human, plasma, 24 h, 10 μM) [%] | Peak Area Ratio (Analyte/IS) ([5]; Replicate 1) | Peak Area Ratio (Analyte/IS) ([5]; Replicate 2) | % Remaining after 24-hr Incubation at 37° C. ([5]; Average) [%] | % Remaining after 24-hr Incubation at 37° C. ([5]; Replicate 1) [%] | % Remaining after 24-hr Incubation at 37° C. ([5]; Replicate 2) [%]
1 | CC(=O)O[C@H]1CC[C@@]2(C)C(=CC[C@@H]3[C@@H]2CC[C@]2(C)C(c4cccnc4)=CC[C@@H]32)C1 [abiraterone acetate] | substrate | five- to ten-fold | practically insoluble | 77 |  |  |  |  |  |  |  |  |  | 
2 | CCN(CC)CCOC(=O)c1ccc(N)cc1 [Procaine] |  |  |  |  | 0.443 | 0.444 | 0.0 | 0.0 | 0.0 | 0.0916 | 0.357 | 51 | 20.65 | 80.5
